Reference: ChEMBL document CHEMBL5678818, “Discovery of potent SOS1 inhibitors that block RAS activation via disruption of the RAS-SOS1 interaction” (Proc Natl Acad Sci U S A, 2019)

Columns and labels:
[1] = target: T1, Dual specificity mitogen-activated protein kinase kinase 6 (Homo sapiens) (UniProt P52564); experiment: Inhibition of MEK6 (unknown origin) assessed as residual activity at 100 nM by KINOMEscan analysis relative to control
T1 sequence (whole entry): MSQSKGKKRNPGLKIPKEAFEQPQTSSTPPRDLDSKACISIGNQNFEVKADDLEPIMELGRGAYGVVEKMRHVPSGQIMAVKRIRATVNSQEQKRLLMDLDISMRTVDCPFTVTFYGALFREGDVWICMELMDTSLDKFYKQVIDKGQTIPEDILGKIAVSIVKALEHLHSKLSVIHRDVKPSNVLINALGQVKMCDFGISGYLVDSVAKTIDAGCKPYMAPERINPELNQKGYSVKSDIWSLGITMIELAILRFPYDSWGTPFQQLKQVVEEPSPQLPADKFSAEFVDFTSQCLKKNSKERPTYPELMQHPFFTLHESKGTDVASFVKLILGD

[2] = target: Fibroblast growth factor receptor 1 (Homo sapiens) (UniProt P11362); experiment: Inhibition of FGFR1 (unknown origin) assessed as residual activity at 100 nM by KINOMEscan analysis relative to control
[3] = target: Mitogen-activated protein kinase 1 (Homo sapiens) (UniProt P28482); experiment: Inhibition of ERK2 (unknown origin) assessed as residual activity at 100 nM by KINOMEscan analysis relative to control
Mitogen-activated protein kinase 1 (Homo sapiens), sequence (P28482 whole entry): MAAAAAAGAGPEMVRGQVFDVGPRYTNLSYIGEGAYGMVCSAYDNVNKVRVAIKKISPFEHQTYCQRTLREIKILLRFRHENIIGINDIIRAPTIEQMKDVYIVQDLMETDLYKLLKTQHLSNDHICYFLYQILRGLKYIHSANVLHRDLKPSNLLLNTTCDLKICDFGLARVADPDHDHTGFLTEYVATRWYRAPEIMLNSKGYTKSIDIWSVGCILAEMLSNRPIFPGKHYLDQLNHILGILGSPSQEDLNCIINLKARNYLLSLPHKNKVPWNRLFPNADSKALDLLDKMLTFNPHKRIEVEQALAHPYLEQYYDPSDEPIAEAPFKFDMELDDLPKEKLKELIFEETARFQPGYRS

[4] = test system: Proto-oncogene tyrosine-protein kinase receptor Ret (Homo sapiens), P07949 [V804L]; experiment: Inhibition of RET V804L mutant (unknown origin) assessed as residual activity at 100 nM by KINOMEscan analysis relative to control
Proto-oncogene tyrosine-protein kinase receptor Ret (Homo sapiens), P07949 [V804L], sequence (P07949 whole entry V804L): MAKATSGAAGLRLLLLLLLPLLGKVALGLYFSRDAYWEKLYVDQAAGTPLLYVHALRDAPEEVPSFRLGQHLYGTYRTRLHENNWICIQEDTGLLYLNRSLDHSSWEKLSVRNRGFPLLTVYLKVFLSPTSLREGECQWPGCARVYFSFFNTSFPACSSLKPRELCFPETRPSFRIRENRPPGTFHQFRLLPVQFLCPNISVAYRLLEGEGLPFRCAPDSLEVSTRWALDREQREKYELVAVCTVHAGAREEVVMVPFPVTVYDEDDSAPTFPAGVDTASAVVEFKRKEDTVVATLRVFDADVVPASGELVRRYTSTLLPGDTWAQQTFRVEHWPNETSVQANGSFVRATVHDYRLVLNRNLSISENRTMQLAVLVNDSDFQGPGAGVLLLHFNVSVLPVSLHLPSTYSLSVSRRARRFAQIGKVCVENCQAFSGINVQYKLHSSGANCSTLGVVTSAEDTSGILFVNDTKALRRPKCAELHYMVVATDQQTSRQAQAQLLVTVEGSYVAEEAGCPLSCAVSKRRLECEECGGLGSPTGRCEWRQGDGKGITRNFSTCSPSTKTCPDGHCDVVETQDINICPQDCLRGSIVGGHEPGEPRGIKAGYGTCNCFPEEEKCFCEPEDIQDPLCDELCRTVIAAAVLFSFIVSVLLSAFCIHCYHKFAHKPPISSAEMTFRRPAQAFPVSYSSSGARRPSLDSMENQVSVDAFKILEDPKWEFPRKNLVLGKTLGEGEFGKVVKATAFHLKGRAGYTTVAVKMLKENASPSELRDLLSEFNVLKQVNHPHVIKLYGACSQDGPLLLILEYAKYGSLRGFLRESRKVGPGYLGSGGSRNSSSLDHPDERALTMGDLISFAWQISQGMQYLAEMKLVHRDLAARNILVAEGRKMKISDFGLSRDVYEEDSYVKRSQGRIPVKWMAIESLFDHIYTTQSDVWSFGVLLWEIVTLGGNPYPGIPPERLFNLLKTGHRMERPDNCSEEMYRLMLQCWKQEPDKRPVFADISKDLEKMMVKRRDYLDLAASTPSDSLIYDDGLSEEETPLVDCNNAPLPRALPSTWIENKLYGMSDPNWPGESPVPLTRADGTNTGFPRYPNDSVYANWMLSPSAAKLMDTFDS

[5] = test system: Tyrosine-protein kinase ABL1 (Homo sapiens), P00519 [Y253F]; experiment: Inhibition of phosphorylated ABL1 Y253F mutant (unknown origin) assessed as residual activity at 100 nM by KINOMEscan analysis relative to control
[6] = target: Phosphorylase b kinase gamma catalytic chain, skeletal muscle/heart isoform (Homo sapiens) (UniProt Q16816); experiment: Inhibition of PHKG1 (unknown origin) assessed as residual activity at 100 nM by KINOMEscan analysis relative to control
Phosphorylase b kinase gamma catalytic chain, skeletal muscle/heart isoform (Homo sapiens), sequence (Q16816 whole entry, looked up, canonical isoform): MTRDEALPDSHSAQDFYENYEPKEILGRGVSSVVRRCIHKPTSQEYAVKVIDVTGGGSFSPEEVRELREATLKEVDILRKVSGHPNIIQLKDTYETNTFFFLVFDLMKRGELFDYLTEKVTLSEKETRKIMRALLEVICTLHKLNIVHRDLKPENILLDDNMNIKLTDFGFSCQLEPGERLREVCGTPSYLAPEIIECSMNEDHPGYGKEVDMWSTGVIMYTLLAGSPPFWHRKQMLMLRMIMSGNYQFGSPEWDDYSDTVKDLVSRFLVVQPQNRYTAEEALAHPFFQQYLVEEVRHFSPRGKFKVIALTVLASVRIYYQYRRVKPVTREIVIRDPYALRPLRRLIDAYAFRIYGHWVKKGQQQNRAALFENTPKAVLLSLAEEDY

[7] = target: T2, 3-phosphoinositide-dependent protein kinase 1 (Homo sapiens) (UniProt O15530); experiment: Inhibition of PDPK1 (unknown origin) assessed as residual activity at 100 nM by KINOMEscan analysis relative to control
T2 sequence (whole entry): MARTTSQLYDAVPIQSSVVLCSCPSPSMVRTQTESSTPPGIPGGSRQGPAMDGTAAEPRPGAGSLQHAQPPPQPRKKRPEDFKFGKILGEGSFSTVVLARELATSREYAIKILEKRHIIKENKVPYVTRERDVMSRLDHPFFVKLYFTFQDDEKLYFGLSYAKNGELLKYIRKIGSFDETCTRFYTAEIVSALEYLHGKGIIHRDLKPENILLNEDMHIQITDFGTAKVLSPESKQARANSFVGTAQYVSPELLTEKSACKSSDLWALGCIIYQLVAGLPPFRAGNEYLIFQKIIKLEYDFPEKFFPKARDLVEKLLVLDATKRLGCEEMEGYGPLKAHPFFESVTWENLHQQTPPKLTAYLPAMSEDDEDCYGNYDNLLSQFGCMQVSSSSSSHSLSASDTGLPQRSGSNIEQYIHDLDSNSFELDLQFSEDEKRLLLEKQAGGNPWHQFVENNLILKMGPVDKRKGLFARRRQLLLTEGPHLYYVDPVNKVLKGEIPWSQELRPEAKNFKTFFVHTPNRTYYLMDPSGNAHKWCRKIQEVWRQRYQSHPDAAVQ

[8] = target: Ribosomal protein S6 kinase alpha-6 (Homo sapiens) (UniProt Q9UK32); experiment: Inhibition of N-terminal RSK4 […] domain 1 (unknown origin) assessed as residual activity at 100 nM by KINOMEscan analysis relative to control
Ribosomal protein S6 kinase alpha-6 (Homo sapiens), sequence (Q9UK32 whole entry): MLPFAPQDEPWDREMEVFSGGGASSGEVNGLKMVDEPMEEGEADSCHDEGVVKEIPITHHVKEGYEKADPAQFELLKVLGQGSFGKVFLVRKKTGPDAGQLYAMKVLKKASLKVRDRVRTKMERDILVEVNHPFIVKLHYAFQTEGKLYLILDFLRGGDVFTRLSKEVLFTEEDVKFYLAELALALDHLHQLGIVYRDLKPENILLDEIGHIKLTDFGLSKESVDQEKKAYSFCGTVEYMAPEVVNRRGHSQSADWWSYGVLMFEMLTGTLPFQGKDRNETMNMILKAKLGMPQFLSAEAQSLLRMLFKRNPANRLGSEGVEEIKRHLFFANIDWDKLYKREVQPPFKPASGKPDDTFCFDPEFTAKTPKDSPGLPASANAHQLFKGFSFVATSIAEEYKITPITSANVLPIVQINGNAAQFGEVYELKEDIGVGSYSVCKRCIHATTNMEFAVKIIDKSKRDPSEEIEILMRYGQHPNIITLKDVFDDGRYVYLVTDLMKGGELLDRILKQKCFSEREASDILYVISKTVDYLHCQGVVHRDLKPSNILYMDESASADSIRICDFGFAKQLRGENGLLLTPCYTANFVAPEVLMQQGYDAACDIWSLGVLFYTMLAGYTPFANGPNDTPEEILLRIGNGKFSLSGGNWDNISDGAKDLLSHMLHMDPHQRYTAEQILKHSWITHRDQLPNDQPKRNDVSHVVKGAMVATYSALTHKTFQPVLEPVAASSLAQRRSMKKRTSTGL

[9] = target: Insulin receptor-related protein (Homo sapiens) (UniProt P14616); experiment: Inhibition of INSRR (unknown origin) assessed as residual activity at 100 nM by KINOMEscan analysis relative to control
Insulin receptor-related protein (Homo sapiens), sequence (P14616 27-742 limits assumed): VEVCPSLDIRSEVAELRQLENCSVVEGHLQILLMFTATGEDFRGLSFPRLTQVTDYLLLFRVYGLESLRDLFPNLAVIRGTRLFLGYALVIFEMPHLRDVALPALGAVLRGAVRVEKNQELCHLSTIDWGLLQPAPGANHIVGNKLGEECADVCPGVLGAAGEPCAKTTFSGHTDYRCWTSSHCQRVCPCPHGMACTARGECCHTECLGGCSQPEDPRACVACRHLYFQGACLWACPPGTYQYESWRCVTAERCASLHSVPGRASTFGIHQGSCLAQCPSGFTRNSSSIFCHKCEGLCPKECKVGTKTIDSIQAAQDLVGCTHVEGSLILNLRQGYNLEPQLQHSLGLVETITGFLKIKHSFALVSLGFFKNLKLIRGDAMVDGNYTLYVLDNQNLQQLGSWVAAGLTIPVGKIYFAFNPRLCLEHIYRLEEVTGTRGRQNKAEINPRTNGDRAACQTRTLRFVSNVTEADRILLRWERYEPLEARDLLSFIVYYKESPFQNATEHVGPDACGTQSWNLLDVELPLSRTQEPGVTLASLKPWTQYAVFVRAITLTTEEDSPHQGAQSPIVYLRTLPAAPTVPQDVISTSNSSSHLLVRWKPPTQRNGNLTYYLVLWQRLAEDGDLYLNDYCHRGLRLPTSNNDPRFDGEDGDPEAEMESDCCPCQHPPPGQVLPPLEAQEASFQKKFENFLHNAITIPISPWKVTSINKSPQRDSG
Insulin receptor-related protein (Homo sapiens), sequence (P14616 747-1297 limits assumed): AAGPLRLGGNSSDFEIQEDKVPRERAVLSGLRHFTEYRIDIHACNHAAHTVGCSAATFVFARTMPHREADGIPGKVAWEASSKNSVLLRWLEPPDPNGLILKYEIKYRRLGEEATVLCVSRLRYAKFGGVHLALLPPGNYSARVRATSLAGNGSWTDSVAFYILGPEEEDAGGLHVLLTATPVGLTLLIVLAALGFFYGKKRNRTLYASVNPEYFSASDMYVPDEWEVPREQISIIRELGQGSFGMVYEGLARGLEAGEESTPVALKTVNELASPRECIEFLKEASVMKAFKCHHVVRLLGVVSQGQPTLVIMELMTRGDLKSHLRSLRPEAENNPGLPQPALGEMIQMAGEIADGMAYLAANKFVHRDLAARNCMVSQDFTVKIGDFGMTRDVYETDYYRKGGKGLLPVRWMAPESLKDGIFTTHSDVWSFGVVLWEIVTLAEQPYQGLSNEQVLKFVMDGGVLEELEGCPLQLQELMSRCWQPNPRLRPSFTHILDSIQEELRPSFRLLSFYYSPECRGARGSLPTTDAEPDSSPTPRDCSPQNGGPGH

[10] = target: MAP/microtubule affinity-regulating kinase 3 (Homo sapiens) (UniProt P27448); experiment: Inhibition of MARK3 (unknown origin) assessed as residual activity at 100 nM by KINOMEscan analysis relative to control
MAP/microtubule affinity-regulating kinase 3 (Homo sapiens), sequence (P27448 whole entry, looked up): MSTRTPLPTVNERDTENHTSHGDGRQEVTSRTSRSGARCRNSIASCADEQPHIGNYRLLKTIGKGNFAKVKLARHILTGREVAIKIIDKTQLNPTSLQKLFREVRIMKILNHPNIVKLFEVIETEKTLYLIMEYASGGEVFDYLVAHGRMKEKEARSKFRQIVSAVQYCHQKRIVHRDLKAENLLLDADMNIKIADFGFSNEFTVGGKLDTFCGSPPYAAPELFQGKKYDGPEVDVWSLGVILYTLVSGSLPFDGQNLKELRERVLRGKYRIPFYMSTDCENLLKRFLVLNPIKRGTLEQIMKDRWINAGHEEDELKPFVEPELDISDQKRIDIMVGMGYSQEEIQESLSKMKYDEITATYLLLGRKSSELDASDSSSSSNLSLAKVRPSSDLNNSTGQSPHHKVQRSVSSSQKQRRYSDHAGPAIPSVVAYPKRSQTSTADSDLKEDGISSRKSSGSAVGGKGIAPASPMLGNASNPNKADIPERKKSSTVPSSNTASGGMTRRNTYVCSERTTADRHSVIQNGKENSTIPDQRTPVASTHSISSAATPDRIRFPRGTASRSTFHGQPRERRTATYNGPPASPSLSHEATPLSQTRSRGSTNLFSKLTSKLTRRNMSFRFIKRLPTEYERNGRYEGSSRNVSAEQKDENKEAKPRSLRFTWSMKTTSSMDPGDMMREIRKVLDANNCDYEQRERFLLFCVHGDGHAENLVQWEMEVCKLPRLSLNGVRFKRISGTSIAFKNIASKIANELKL

[11] = test system: Tyrosine-protein kinase ABL1 (Homo sapiens), P00519 [F317L]; experiment: Inhibition of phosphorylated ABL1 F317L mutant (unknown origin) assessed as residual activity at 100 nM by KINOMEscan analysis relative to control
[12] = test system: Mast/stem cell growth factor receptor Kit (Homo sapiens), P10721 [V559D]; experiment: Inhibition of KIT V559D mutant (unknown origin) assessed as residual activity at 100 nM by KINOMEscan analysis relative to control
[13] = target: T3, Discoidin domain-containing receptor 2 (Homo sapiens) (UniProt Q16832); experiment: Inhibition of DDR2 (unknown origin) assessed as residual activity at 100 nM by KINOMEscan analysis relative to control
T3 sequence (whole entry): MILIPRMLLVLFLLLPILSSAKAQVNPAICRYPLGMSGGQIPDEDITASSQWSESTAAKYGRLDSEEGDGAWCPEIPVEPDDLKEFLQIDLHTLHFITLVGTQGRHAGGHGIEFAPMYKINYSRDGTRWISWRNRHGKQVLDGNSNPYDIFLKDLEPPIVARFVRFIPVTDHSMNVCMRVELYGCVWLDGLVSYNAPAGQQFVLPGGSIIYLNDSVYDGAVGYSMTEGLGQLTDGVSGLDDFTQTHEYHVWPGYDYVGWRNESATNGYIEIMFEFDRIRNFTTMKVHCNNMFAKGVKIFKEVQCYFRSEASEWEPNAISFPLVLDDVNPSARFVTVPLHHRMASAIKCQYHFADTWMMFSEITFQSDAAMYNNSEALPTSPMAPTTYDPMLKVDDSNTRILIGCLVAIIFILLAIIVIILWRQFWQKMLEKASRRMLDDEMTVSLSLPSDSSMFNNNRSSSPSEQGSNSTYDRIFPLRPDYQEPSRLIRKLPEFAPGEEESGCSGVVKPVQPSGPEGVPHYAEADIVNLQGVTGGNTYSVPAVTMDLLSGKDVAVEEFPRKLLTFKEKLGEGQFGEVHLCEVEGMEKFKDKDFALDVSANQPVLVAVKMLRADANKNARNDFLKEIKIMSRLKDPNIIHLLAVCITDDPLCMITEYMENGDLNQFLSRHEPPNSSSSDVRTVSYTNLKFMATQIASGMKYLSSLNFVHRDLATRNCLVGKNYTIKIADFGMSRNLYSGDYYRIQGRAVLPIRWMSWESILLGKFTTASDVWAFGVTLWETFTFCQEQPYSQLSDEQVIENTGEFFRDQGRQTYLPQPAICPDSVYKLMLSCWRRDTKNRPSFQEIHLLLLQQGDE

## COc1cc2ncnc(N[C@H](C)c3cccc4ccccc34)c2cc1OC
[1]
  Activity: 98%
[2]
  Activity: 100%
[3]
  Activity: 72%
[4]
  Activity: 99%
[5]
  Activity: 98%
[6]
  Activity: 100%
[7]
  Activity: 79%
[8]
  Activity: 94%
[9]
  Activity: 92%
[10]
  Activity: 88%
[11]
  Activity: 86%
[12]
  Activity: 100%
[13]
  Activity: 67%
